Target: T1, N-terminally GST-tagged DLK (catalytic domain amino acid 1-520) (Homo sapiens, UniProt Q12852)
T1 construct: N-terminally GST-tagged DLK (catalytic domain amino acid 1-520); purchased Carna Bioscience
T1 sequence (Q12852 1-520): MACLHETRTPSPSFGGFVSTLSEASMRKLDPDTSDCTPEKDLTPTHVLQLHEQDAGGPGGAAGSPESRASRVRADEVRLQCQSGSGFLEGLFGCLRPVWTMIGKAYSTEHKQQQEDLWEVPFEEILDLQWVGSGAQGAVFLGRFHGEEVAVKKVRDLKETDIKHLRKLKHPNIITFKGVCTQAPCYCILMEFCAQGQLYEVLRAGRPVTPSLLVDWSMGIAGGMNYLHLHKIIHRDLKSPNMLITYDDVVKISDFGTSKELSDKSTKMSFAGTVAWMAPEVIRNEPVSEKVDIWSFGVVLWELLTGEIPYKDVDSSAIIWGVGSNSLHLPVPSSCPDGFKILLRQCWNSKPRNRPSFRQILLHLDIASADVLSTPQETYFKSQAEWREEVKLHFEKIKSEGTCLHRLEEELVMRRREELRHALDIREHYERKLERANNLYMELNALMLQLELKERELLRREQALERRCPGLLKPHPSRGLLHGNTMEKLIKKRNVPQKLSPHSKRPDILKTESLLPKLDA
Experiment: DLK TR-FRET inhibition assay
Assay type: biochemical
Settings: 5 nM GST-DLK, 40 nM HIS-MKK4 K131M substrate, 30 μM ATP, 60 minutes at ambient temperature
Summary of the method: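 5 nM GST-DLK (aa 1-520), 40 nM HIS-MKK4 K131M and 30 μM ATP reacted 60 min at ambient temperature in HEPES pH 7.5 buffer with 10 mM MgCl2, compound 1:3 serially diluted from 20 uM. TR-FRET detection of phospho-MKK4 used Eu-cryptate anti-phospho-MKK4 plus D2 anti-HIS, read after 3 h (665/615 nm).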

| Ki [nM] | Compound |
| --- | --- |
| 4.52 | Nc1ncc(-c2cc([C@H]3[C@@H]4C[C@H](N5CCOCC5)C[C@@H]43)n(C3CCCC3)n2)cc1OC(F)F [compound 129, 5-(1-cyclopentyl-5-((1R,3r,5S,6r)-3-morpholinobicyclo[3.1.0]hexan-6-yl)-1H-pyrazol-3-yl)-3-(difluoromethoxy)pyridin-2-amine] |
| 1.4 | CO[C@@H]1CCN([C@@H]2C[C@@H]3[C@H](C2)[C@H]3c2cc(-c3cnc(N)c(OC(F)(F)F)c3)nn2C(C)C)C1 [compound 193, 5-(1-isopropyl-5-((1R,3s,5S,6R)-3-((R)-3-methoxypyrrolidin-1-yl)bicyclo[3.1.0]hexan-6-yl)-1H-pyrazol-3-yl)-3-(trifluoromethoxy) pyridin-2-amine] |
| 3.3 | CC(C)n1nc(-c2cnc(N)c(OC(F)(F)F)c2)cc1[C@H]1[C@@H]2C[C@@H](N3C[C@@H]4C[C@H]3CO4)C[C@@H]21 [compound 164, 5-(5-((1R,3s,5S,6S)-3-((1S,4S)-2-oxa-5-azabicyclo[2.2.1]heptan-5-yl)bicyclo[3.1.0]hexan-6-yl)-1-isopropyl-1H-pyrazol-3-yl)-3-(trifluoromethoxy)pyridin-2-amine] |
| 4.5 | CC(C)n1nc(-c2cnc(N)c(OC(F)F)c2)cc1[C@H]1[C@@H]2C[C@@H](N3CCOCC(F)(F)C3)C[C@@H]21 [compound 183, 5-(5-((1R,3s,5S,6r)-3-(6,6-difluoro-1,4-oxazepan-4-yl)bicyclo [3.1.0]hexan-6-yl)-1-isopropyl-1H-pyrazol-3-yl)-3-(difluoro-methoxy)pyridin-2-amine] |
| 2.28 | 5-(1-isopropyl-5-((1R,3s,5S,6R)- 3-((R)-2-methylmorpholino) bicyclo[3.1.0]hexan-6-yl)-1H- pyrazol-3-yl)-3-(trifluoromethyl) pyridin-2-amine [compound 1] |
| 2.6 | CC(C)n1nc(-c2cnc(N)c(OC(F)F)c2)cc1[C@H]1[C@@H]2C[C@H](N3CC4CC(C3)O4)C[C@@H]21 [compound 271, 5-(5-((1R,3r,5S,6r)-3-(6-oxa-3-azabicyclo[3.1.1]heptan-3-yl)bicyclo[3.1.0]hexan-6-yl)-1-iso-propyl-1H-pyrazol-3-yl)-3-(difluoro-methoxy)pyridin-2-amine] |
| 9.4 | CC(C)n1nc(-c2cnc(N)c(OC(F)F)c2)cc1[C@H]1[C@@H]2CC3(CCO3)C[C@@H]21 (stereo partly drawn) [compound 92, 3-(difluoromethoxy)-5-(1-isopropyl-5-((1 R,5S,6r)-spiro[bicyclo [3.1.0]hexane-3,2′-oxetan]-6-yl)-1H-pyrazol-3-yl)pyridin-2-amine] |
| 5.2 | COCC1(F)CCN(C2C[C@@H]3C(c4cc(-c5cnc(N)c(OC(F)F)c5)nn4C(C)C)[C@@H]3C2)C1 (single isomer, unassigned) [compound 174] |
| 4.2 | CC(C)n1nc(-c2cnc(N)c(OC(F)F)c2)cc1C1[C@H]2CC(N3CCOCC(F)C3)C[C@@H]12 (single isomer, unassigned) [compound 172] |
| 4.63 | CC(C)n1nc(-c2cnc(N)c(C(F)(F)F)c2)cc1[C@H]1[C@@H]2C[C@@H](N(C)CCS(C)(=O)=O)C[C@@H]21 [compound 7, 5-(1-isopropyl-5-((1R,3s,5S,6r)-3-(methyl(2-(methylsulfonyl)ethyl)amino)bicyclo[3.1.0]hexan-6-yl)-1H-pyrazol-3-yl)-3-(trifluoromethyl)pyridin-2-amine] |
| 4.2 | CC(C)n1nc(-c2cnc(N)c(C(F)(F)F)c2)cc1[C@H]1[C@@H]2C[C@H](N(C)C3COC3)C[C@@H]21 [compound 49, 5-(1-isopropyl-5-((1R,3r,5S,6r)-3-(methyl(oxetan-3-yl)amino)bicyclo[3.1.0]hexan-6-yl)-1H-pyrazol-3-yl)-3-(trifluoromethyl) pyridin-2-amine] |

— patent US9365583B2, “Substituted pyrazoles and uses thereof” (Genentech, Inc., priority 2013, dated 2016)
